Data taken from patent publication US20230242585A1, “IMMUNOMODULATORS” (Bristol-Myers Squibb Company, priority 2020, published 2023).
pIC50: −log10 of the molar value. Starred links: 1 amine or outer side, 2 acyl side, 3 side chain; linkers in the order of their positions; H or OH if unused. Positions of bridges follow the written chain, without caps; N, C: chain ends. Non-standard residues stand in square brackets, D forms with d. Residues, ends and D or L forms follow the SMILES beside them. X30 = O=C([C@H](CCNC[C@H](O)[C@@H](O)[C@H](O[C@H]1O[C@H](CO)[C@@H](O)[C@H](O)[C@H]1O)[C@H](O)CO)N[*:1])[*:2]; X29 = O=C([C@H](CNC[C@H](O)[C@@H](O)[C@H](O[C@H]1O[C@H](CO)[C@@H](O)[C@H](O)[C@H]1O)[C@H](O)CO)N[*:1])[*:2]; X44 = O=C([C@H](CCNC[C@@H](O)[C@H](O)[C@@H](O)[C@@H](O)CO)N[*:1])[*:2]; X43 = O=C([C@H](CNC[C@@H](O)[C@H](O)[C@@H](O)[C@@H](O)CO)N[*:1])[*:2]; X66 = C[C@H](O)[C@H](O)[C@@H](O)[C@@H](O)CNCC[C@H](N[*:1])C(=O)[*:2]; X52 = C[C@H](O)[C@H](O)[C@@H](O)[C@@H](O)CNC[C@H](N[*:1])C(=O)[*:2]; X68 = O=C([C@H](CCNC[C@@H](O)[C@H](O)[C@H](O)CO)N[*:1])[*:2]; X26 = O=C([C@H](CCNC[C@H](O)[C@H](O)[C@H](O)CO)N[*:1])[*:2]; X67 = O=C([C@H](CNC[C@@H](O)[C@H](O)[C@H](O)CO)N[*:1])[*:2]; X7 = O=C([C@H](CNC[C@H](O)[C@H](O)[C@H](O)CO)N[*:1])[*:2]; X46 = CCn1c2ccccc2c2cc(CNCC[C@H](N[*:1])C(=O)[*:2])ccc21; Trp(1-CH2COOH) = N[C@@H](Cc1cn(CC(=O)O)c2ccccc12)C(=O)O; X45 = CCn1c2ccccc2c2cc(CNC[C@H](N[*:1])C(=O)[*:2])ccc21; X17 = O=C([C@H](CNCc1cncc2ccccc12)N[*:1])[*:2]; X61 = O=C([C@H](CCNCc1ccccc1O)N[*:1])[*:2]; X60 = O=C([C@H](CNCc1ccccc1O)N[*:1])[*:2]; Hyp = O=C(O)[C@@H]1C[C@@H](O)CN1; NMeNle = CCCC[C@H](NC)C(=O)O; NMeA = CN[C@@H](C)C(=O)O; Dab = NCC[C@H](N)C(=O)O

Biological target: T1, PD-1/PD-L1 (Homo sapiens, UniProt Q9NZQ7)
T1 construct: TVMV protease site (linker) (C); made in house; host or cells: HEK293T cells
Assay: PD-1/PD-L1 Homogenous Time-Resolved Fluorescence (HTRF) binding assay
Conditions: PD-L1-His 10 nM, PD-1-Ig 20 nM
How it was run: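 Compounds preincubated 15 min with PD-L1-His (residues 18-239, 10 nM) in dPBS with 0.1% BSA, 0.05% Tween-20, then PD-1-Ig (residues 25-167, 20 nM) for 15 min. Eu-cryptate anti-Ig (1 nM) and APC anti-His (20 nM) equilibrated 30 min; 665/620 nm ratio read, IC50 derived.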

T1 sequence (Q9NZQ7 18-239): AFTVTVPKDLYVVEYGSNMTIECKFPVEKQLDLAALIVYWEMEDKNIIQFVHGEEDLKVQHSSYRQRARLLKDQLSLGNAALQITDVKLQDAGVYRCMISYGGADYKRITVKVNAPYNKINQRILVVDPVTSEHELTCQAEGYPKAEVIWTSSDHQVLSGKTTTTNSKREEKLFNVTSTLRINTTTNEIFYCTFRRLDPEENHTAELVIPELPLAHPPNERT

SMILES	pIC50
CCCC[C@H]1C(=O)N(C)[C@@H](CCCC)C(=O)N[C@@H](CC(C)C)C(=O)N[C@H](C(=O)NCC(N)=O)CSCC(=O)N[C@@H](Cc2ccc(O)cc2)C(=O)N(C)[C@@H](C)C(=O)N[C@@H](CC(N)=O)C(=O)N2CCC[C@H]2C(=O)N[C@@H](CNCc2ccccc2O)C(=O)N[C@@H](CC(C)C)C(=O)N2C[C@H](O)C[C@H]2C(=O)N[C@@H](Cc2c[nH]c3ccccc23)C(=O)N[C@@H](CCNCc2ccccc2O)C(=O)N[C@@H](Cc2cn(CC(=O)O)c3ccccc23)C(=O)N1C [Example 1021] ({CH2CO}-Y[NMeA]NP[X60]L[Hyp]W[X61][Trp(1-CH2COOH)][NMeNle][NMeNle]LCG-NH2; thioether N-14)	8.12
CCCC[C@H]1C(=O)N(C)[C@@H](CCCC)C(=O)N[C@@H](CC(C)C)C(=O)N[C@H](C(=O)NCC(N)=O)CSCC(=O)N[C@@H](Cc2ccc(O)cc2)C(=O)N(C)[C@@H](C)C(=O)N[C@@H](CC(N)=O)C(=O)N2CCC[C@H]2C(=O)N[C@@H](CNCc2cncc3ccccc23)C(=O)N[C@@H](CC(C)C)C(=O)N2C[C@H](O)C[C@H]2C(=O)N[C@@H](Cc2c[nH]c3ccccc23)C(=O)N[C@@H](CCN)C(=O)N[C@@H](Cc2cn(CC(=O)O)c3ccccc23)C(=O)N1C [Example 1019] ({CH2CO}-Y[NMeA]NP[X17]L[Hyp]W[Dab][Trp(1-CH2COOH)][NMeNle][NMeNle]LCG-NH2; thioether N-14)	8.10
CCCC[C@H]1C(=O)N(C)[C@@H](CCCC)C(=O)N[C@@H](CC(C)C)C(=O)N[C@H](C(=O)NCC(N)=O)CSCC(=O)N[C@@H](Cc2ccc(O)cc2)C(=O)N(C)[C@@H](C)C(=O)N[C@@H](CC(N)=O)C(=O)N2CCC[C@H]2C(=O)N[C@@H](CNCc2ccc3c(c2)c2ccccc2n3CC)C(=O)N[C@@H](CC(C)C)C(=O)N2C[C@H](O)C[C@H]2C(=O)N[C@@H](Cc2c[nH]c3ccccc23)C(=O)N[C@@H](CCNCc2ccc3c(c2)c2ccccc2n3CC)C(=O)N[C@@H](Cc2cn(CC(=O)O)c3ccccc23)C(=O)N1C [Example 1009] ({CH2CO}-Y[NMeA]NP[X45]L[Hyp]W[X46][Trp(1-CH2COOH)][NMeNle][NMeNle]LCG-NH2; thioether N-14)	8.01
CCCC[C@H]1C(=O)N(C)[C@@H](CCCC)C(=O)N[C@@H](CC(C)C)C(=O)N[C@H](C(=O)NCC(N)=O)CSCC(=O)N[C@@H](Cc2ccc(O)cc2)C(=O)N(C)[C@@H](C)C(=O)N[C@@H](CC(N)=O)C(=O)N2CCC[C@H]2C(=O)N[C@@H](CNC[C@H](O)[C@H](O)[C@H](O)CO)C(=O)N[C@@H](CC(C)C)C(=O)N2C[C@H](O)C[C@H]2C(=O)N[C@@H](Cc2c[nH]c3ccccc23)C(=O)N[C@@H](CCNC[C@H](O)[C@H](O)[C@H](O)CO)C(=O)N[C@@H](Cc2cn(CC(=O)O)c3ccccc23)C(=O)N1C [Example 2003] ({CH2CO}-Y[NMeA]NP[X7]L[Hyp]W[X26][Trp(1-CH2COOH)][NMeNle][NMeNle]LCG-NH2; thioether N-14)	8.00

Continued, values first:

pIC50	SMILES
7.92	CCCC[C@H]1C(=O)N(C)[C@@H](CCCC)C(=O)N[C@@H](CC(C)C)C(=O)N[C@H](C(=O)NCC(N)=O)CSCC(=O)N[C@@H](Cc2ccc(O)cc2)C(=O)N(C)[C@@H](C)C(=O)N[C@@H](CC(N)=O)C(=O)N2CCC[C@H]2C(=O)N[C@@H](CNC[C@H](O)[C@H](O)[C@@H](O)[C@H](C)O)C(=O)N[C@@H](CC(C)C)C(=O)N2C[C@H](O)C[C@H]2C(=O)N[C@@H](Cc2c[nH]c3ccccc23)C(=O)N[C@@H](CCNC[C@H](O)[C@H](O)[C@@H](O)[C@H](C)O)C(=O)N[C@@H](Cc2cn(CC(=O)O)c3ccccc23)C(=O)N1C [Example 2044] ({CH2CO}-Y[NMeA]NP[X52]L[Hyp]W[X66][Trp(1-CH2COOH)][NMeNle][NMeNle]LCG-NH2; thioether N-14)
8.68	CCCC[C@H]1C(=O)N(C)[C@@H](CCCC)C(=O)N[C@@H](CC(C)C)C(=O)N[C@H](C(=O)NCC(N)=O)CSCC(=O)N[C@@H](Cc2ccc(O)cc2)C(=O)N(C)[C@@H](C)C(=O)N[C@@H](CC(N)=O)C(=O)N2CCC[C@H]2C(=O)N[C@@H](CNC[C@H](O)[C@@H](O)[C@H](O[C@H]2O[C@H](CO)[C@@H](O)[C@H](O)[C@H]2O)[C@H](O)CO)C(=O)N[C@@H](CC(C)C)C(=O)N2C[C@H](O)C[C@H]2C(=O)N[C@@H](Cc2c[nH]c3ccccc23)C(=O)N[C@@H](CCNC[C@H](O)[C@@H](O)[C@H](O[C@H]2O[C@H](CO)[C@@H](O)[C@H](O)[C@H]2O)[C@H](O)CO)C(=O)N[C@@H](Cc2cn(CC(=O)O)c3ccccc23)C(=O)N1C [Example 2010] ({CH2CO}-Y[NMeA]NP[X29]L[Hyp]W[X30][Trp(1-CH2COOH)][NMeNle][NMeNle]LCG-NH2; thioether N-14)
8.17	CCCC[C@H]1C(=O)N(C)[C@@H](CCCC)C(=O)N[C@@H](CC(C)C)C(=O)N[C@H](C(=O)NCC(N)=O)CSCC(=O)N[C@@H](Cc2ccc(O)cc2)C(=O)N(C)[C@@H](C)C(=O)N[C@@H](CC(N)=O)C(=O)N2CCC[C@H]2C(=O)N[C@@H](CNC[C@H](O)[C@H](O)[C@@H](O)[C@H](C)O)C(=O)N[C@@H](CC(C)C)C(=O)N2C[C@H](O)C[C@H]2C(=O)N[C@@H](Cc2c[nH]c3ccccc23)C(=O)N[C@@H](CCN)C(=O)N[C@@H](Cc2cn(CC(=O)O)c3ccccc23)C(=O)N1C [Example 2042] ({CH2CO}-Y[NMeA]NP[X52]L[Hyp]W[Dab][Trp(1-CH2COOH)][NMeNle][NMeNle]LCG-NH2; thioether N-14)
8.57	CCCC[C@H]1C(=O)N(C)[C@@H](CCCC)C(=O)N[C@@H](CC(C)C)C(=O)N[C@H](C(=O)NCC(N)=O)CSCC(=O)N[C@@H](Cc2ccc(O)cc2)C(=O)N(C)[C@@H](C)C(=O)N[C@@H](CC(N)=O)C(=O)N2CCC[C@H]2C(=O)N[C@@H](CNC[C@@H](O)[C@H](O)[C@@H](O)[C@@H](O)CO)C(=O)N[C@@H](CC(C)C)C(=O)N2C[C@H](O)C[C@H]2C(=O)N[C@@H](Cc2c[nH]c3ccccc23)C(=O)N[C@@H](CCNC[C@@H](O)[C@H](O)[C@@H](O)[C@@H](O)CO)C(=O)N[C@@H](Cc2cn(CC(=O)O)c3ccccc23)C(=O)N1C [Example 2034] ({CH2CO}-Y[NMeA]NP[X43]L[Hyp]W[X44][Trp(1-CH2COOH)][NMeNle][NMeNle]LCG-NH2; thioether N-14)
9.15	CCCC[C@H]1C(=O)N(C)[C@@H](CCCC)C(=O)N[C@@H](CC(C)C)C(=O)N[C@H](C(=O)NCC(N)=O)CSCC(=O)N[C@@H](Cc2ccc(O)cc2)C(=O)N(C)[C@@H](C)C(=O)N[C@@H](CC(N)=O)C(=O)N2CCC[C@H]2C(=O)N[C@@H](CNC[C@@H](O)[C@H](O)[C@H](O)CO)C(=O)N[C@@H](CC(C)C)C(=O)N2C[C@H](O)C[C@H]2C(=O)N[C@@H](Cc2c[nH]c3ccccc23)C(=O)N[C@@H](CCNC[C@@H](O)[C@H](O)[C@H](O)CO)C(=O)N[C@@H](Cc2cn(CC(=O)O)c3ccccc23)C(=O)N1C [Example 2012] ({CH2CO}-Y[NMeA]NP[X67]L[Hyp]W[X68][Trp(1-CH2COOH)][NMeNle][NMeNle]LCG-NH2; thioether N-14)
